According to ChEMBL document CHEMBL3132769, “Fragment growing to retain or alter the selectivity of anchored kinase hinge-binding fragments” (Medchemcomm, 2014):

Columns and labels:
[1] = target: T1, Serine/threonine-protein kinase Nek2 (Homo sapiens) (UniProt P51955); experiment: Inhibition of human full length NEK2 expressed in baculovirus assessed as substrate phosphorylation using fluorescence-labelled peptides as substrate at 70 uM after 90 mins by microfluidic peptide phosphorylation assay
T1 sequence (whole entry): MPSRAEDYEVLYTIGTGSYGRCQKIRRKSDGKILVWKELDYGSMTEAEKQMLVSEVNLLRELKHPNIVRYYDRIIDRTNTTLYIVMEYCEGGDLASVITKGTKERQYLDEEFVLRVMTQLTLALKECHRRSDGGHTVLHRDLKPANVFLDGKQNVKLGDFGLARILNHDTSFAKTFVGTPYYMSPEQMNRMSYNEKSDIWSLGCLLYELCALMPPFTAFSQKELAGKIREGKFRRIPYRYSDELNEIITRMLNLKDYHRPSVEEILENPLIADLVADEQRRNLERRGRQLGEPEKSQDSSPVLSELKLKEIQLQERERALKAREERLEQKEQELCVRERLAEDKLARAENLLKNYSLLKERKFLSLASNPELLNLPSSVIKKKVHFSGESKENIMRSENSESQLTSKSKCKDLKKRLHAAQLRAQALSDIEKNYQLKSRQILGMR

[2] = target: T2, MAP kinase-activated protein kinase 5 (Homo sapiens) (UniProt Q8IW41); experiment: Inhibition of human full length PRAK expressed in baculovirus assessed as substrate phosphorylation using fluorescence-labelled peptides as substrate at 0.2 uM after 90 mins by microfluidic peptide phosphorylation assay
T2 sequence (whole entry): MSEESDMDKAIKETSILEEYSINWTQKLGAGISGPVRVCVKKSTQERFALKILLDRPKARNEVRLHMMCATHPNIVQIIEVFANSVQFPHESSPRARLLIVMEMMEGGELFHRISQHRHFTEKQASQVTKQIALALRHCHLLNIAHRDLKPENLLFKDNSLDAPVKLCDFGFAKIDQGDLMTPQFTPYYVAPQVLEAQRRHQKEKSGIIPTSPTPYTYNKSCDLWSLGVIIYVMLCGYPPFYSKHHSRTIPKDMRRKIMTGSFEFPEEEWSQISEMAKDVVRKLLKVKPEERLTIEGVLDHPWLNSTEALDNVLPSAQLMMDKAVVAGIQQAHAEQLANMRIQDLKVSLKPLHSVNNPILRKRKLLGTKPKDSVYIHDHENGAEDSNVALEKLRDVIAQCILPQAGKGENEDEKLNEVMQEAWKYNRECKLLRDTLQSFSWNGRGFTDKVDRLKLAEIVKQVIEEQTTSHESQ

[3] = target: Protein kinase C delta type (Homo sapiens) (UniProt Q05655); experiment: Inhibition of human truncated PKC delta expressed in baculovirus assessed as substrate phosphorylation using fluorescence-labelled peptides as substrate at 420 uM after 90 mins by microfluidic peptide phosphorylation assay
[4] = target: T3, Inhibitor of nuclear factor kappa-B kinase subunit beta (Homo sapiens) (UniProt O14920); experiment: Inhibition of human full length IKK beta expressed in baculovirus assessed as substrate phosphorylation using fluorescence-labelled peptides as substrate at 420 uM after 90 mins by microfluidic peptide phosphorylation assay
T3 sequence (whole entry): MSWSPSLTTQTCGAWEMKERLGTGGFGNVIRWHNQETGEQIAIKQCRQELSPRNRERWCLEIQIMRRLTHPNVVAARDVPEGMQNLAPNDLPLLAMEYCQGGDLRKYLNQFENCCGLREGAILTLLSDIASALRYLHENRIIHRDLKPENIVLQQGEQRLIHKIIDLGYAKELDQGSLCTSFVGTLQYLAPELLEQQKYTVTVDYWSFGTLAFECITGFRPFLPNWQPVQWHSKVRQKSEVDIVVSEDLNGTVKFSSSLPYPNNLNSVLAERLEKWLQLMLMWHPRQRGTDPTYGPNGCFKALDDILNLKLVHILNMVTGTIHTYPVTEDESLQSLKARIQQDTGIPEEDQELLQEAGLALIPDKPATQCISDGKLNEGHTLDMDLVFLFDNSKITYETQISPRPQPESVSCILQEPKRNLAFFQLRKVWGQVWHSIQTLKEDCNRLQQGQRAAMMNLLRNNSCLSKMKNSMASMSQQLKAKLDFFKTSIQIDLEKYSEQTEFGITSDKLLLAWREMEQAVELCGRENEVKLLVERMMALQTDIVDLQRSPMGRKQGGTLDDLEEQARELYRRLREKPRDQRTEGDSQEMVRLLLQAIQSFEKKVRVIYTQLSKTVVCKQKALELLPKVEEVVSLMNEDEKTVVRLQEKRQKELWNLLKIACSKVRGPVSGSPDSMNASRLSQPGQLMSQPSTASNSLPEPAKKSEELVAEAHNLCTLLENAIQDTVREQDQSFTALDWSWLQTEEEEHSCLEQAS

[5] = target: Insulin-like growth factor 1 receptor (Homo sapiens) (UniProt P08069); experiment: Inhibition of human IGF1R catalytic domain expressed in baculovirus assessed as substrate phosphorylation using fluorescence-labelled peptides as substrate at 9 uM after 90 mins by microfluidic peptide phosphorylation assay
[6] = target: Tyrosine-protein kinase HCK (Homo sapiens) (UniProt P08631); experiment: Inhibition of human HCK catalytic domain expressed in baculovirus assessed as substrate phosphorylation using fluorescence-labelled peptides as substrate at 2 uM after 90 mins by microfluidic peptide phosphorylation assay
[7] = target: T4, cGMP-dependent protein kinase 1 (Homo sapiens) (UniProt Q13976); experiment: Inhibition of human full length PKG-1a expressed in baculovirus assessed as substrate phosphorylation using fluorescence-labelled peptides as substrate at 2 uM after 90 mins by microfluidic peptide phosphorylation assay
T4 sequence (whole entry): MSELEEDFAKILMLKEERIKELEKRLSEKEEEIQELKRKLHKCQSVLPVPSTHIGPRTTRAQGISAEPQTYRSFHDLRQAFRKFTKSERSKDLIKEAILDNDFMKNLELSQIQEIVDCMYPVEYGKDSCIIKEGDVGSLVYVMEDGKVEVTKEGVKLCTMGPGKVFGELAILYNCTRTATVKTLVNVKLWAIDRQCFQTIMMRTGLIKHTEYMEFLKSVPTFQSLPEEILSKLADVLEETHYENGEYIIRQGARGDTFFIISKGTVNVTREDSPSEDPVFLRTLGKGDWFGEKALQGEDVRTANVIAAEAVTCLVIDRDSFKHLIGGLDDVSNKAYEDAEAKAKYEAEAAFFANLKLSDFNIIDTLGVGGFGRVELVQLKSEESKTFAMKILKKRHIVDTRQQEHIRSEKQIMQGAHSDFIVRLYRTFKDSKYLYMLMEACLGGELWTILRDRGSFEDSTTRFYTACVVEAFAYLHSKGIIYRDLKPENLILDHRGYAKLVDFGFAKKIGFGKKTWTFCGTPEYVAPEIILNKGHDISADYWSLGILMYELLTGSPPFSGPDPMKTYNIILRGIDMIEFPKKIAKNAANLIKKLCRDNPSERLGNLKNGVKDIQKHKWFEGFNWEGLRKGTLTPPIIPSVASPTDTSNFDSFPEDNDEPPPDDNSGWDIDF

[8] = target: Serine/threonine-protein kinase pim-1 (Homo sapiens) (UniProt P11309); experiment: Inhibition of human full length PIM1 expressed in baculovirus assessed as substrate phosphorylation using fluorescence-labelled peptides as substrate at […] after 90 mins by microfluidic peptide phosphorylation assay
Chain of Serine/threonine-protein kinase pim-1 (Homo sapiens) (P11309 whole entry, looked up): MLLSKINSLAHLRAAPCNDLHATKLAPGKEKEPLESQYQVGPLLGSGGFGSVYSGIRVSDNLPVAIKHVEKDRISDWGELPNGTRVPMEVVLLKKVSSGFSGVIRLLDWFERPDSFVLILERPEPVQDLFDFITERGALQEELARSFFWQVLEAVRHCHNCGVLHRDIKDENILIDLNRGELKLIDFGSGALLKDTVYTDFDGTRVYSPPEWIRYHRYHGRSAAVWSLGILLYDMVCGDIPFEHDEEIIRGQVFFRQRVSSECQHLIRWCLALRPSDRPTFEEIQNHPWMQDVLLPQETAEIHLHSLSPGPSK

Chain of Protein kinase C delta type (Homo sapiens) (Q05655 whole entry, looked up, the tested form may be a part): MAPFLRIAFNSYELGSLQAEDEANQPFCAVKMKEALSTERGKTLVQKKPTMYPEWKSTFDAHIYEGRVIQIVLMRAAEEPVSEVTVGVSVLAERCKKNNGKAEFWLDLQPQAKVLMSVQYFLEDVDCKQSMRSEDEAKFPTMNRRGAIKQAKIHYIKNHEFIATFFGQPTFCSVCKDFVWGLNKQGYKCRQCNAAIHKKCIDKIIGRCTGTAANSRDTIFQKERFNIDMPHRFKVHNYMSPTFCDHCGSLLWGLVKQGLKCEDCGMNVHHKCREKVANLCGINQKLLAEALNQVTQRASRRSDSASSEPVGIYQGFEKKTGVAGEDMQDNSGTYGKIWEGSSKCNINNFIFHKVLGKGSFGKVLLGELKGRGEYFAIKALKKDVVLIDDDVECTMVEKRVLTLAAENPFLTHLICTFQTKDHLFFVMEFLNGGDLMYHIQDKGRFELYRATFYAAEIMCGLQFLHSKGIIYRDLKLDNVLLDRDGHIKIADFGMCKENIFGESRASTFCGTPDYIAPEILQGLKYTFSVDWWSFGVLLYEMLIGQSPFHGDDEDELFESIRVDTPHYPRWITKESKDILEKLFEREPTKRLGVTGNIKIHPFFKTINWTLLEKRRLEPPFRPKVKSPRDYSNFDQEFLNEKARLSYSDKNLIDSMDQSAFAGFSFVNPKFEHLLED
Chain of Tyrosine-protein kinase HCK (Homo sapiens) (P08631 2-526 limits assumed): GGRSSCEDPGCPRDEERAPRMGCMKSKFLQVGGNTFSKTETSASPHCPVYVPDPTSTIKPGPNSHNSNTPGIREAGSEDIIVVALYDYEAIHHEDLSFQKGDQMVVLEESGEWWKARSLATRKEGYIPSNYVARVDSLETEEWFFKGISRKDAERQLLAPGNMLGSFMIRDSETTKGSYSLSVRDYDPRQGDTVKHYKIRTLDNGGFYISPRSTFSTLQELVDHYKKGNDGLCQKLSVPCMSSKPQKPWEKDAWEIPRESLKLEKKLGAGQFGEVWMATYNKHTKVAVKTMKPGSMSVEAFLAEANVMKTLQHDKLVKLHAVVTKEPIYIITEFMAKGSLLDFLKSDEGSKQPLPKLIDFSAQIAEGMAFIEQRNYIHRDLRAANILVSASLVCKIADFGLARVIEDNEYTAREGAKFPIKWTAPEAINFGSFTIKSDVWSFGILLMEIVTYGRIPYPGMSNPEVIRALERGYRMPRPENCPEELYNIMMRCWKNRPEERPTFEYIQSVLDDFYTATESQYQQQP

Q: For `CNCc1ccc(-c2ncnc3[nH]cnc23)cc1`, which inhibition [1] is on record?
A: 15.5%

Q: Which inhibition [2] does the source give for `Clc1ccc(C2(c3ccc(-c4ncnc5[nH]cnc45)cc3)CCNCC2)cc1` here?
A: 8.5%

Q: Which inhibition [3] does the source give for `c1nc(N2CCOCC2)c2nc[nH]c2n1` here?
A: 78.5%

Q: What about the inhibition [4] of the same compound?
A: 87%

Q: Which inhibition [5] does the source give for `NCC1CN(c2ncnc3[nH]c4cnccc4c23)CCO1` (stereo not drawn) here?
A: 10%

Q: Which inhibition [6] does the source give for `NC1CCN(c2ncnc3[nH]ccc23)CC1` here?
A: 3%

Q: What about the inhibition [7] of the same compound?
A: 10%

Q: With `COC(=O)c1cnc(Nc2cnc(C#N)cn2)cc1NCC1CCNCC1` as the compound, how does the inhibition [8] read?
A: 7%
